Consider one compound from US20240189275A1, “METHODS FOR TREATING NON-ALCOHOLIC STEATOHEPATITIS WITH A SCD-1 INHIBITOR” (Lipidio Pharmaceuticals, Inc., priority 2021, published 2024).

Common to all, as to type: in vivo, mice
The nature of assay [1]: Body weight and body composition (EchoMRI) in GAN diet-induced, biopsy-confirmed mouse model of NASH. Particulars: 12 weeks. The method, then:
(§1) The effects of topical treatment of Compound 25 to 10% of the skin for 12 weeks were assessed in a diet-induced and biopsy-confirmed mouse model of NASH described in the literature (World Journal of Gastroenterology (2019), 25(33), 4904-4920). In this model, NASH is induced by maintaining mice on a high fat-high fructose diet (the so-called GAN [Novel Gubra Amylin] diet) for 33 weeks prior to drug administration. […] This biopsy is then compared to a post-drug treatment biopsy to assess changes in NAFLD activity and Fibrosis Stage. Qualitative scoring is completed with quantitative immunohistochemistry to assess effects on hepatic steatosis, inflammation (Galectin-3), fibrosis (Collagen 1a1 and Picro-Sirius Red Staining) and stellate cell activation (α-SMA). RNASeq was also performed on terminal liver samples from mice treated with placebo gel and compound 25 gel to examine key candidate genes involved in extracellular matrix formation (ECM) and fibrogenesis. Parametric (ANOVA) and non-parametric (Fisher's or Chi Square) statistics were used to analyze the data as appropriate.
SCD-1 inhibitor compounds can be tested in vivo in a rodent diet-induced model of biopsy-confirmed NASH. In this experiment, the NASH phenotype is induced by maintaining mice upon a GAN diet for 33 weeks prior to drug administration (BMC Gastroenterology (2020), 20(1), 210; World Journal of Gastroenterology (2019), 25(33), 4904-4920). […] In addition to pre- and post-treatment histological analyses, metabolic assessments such as body weight, body composition, food intake and clinical chemistries are measured during and following the 12-week study dosing period. […]
Animals and Diet: The Danish Animal Experiments Inspectorate approved all experiments which were conducted using internationally accepted principles for the use of laboratory animals under the personal license #2013-15-2934-00784. […] Mice were weighed daily during the study and body composition was measured by non-invasive EchoMRI scanning using EchoMRI-900 (EchoMRI, Houston, TX).

In assay [2] the test system is diet-induced and biopsy-confirmed mouse model of NASH. Description: Terminal hepatic triglyceride content in mouse model of NASH. Particulars: 2.5% gel, week 12; p<0.001. The method, then:
(§2) SCD-1 inhibitor compounds can be tested in vivo in a rodent diet-induced model of biopsy-confirmed NASH. In this experiment, the NASH phenotype is induced by maintaining mice upon a GAN diet for 33 weeks prior to drug administration (BMC Gastroenterology (2020), 20(1), 210; World Journal of Gastroenterology (2019), 25(33), 4904-4920). A biopsy is performed prior to drug treatment to eliminate any mice that have not developed the NASH phenotype and to mirror clinical trial design where liver biopsies prior to and at the end of treatment are compared. In addition to pre- and post-treatment histological analyses, metabolic assessments such as body weight, body composition, food intake and clinical chemistries are measured during and following the 12-week study dosing period.
(§3) Mice were dosed topically to 10% of the total BSA of the skin with either a placebo gel or a gel containing compound 25 (at a concentration of 0.05%, 0.25%, 0.75%, or 2.5%). (World Journal of Gastroenterology (2018), 24(2), 179-194).
Animals and Diet: The Danish Animal Experiments Inspectorate approved all experiments which were conducted using internationally accepted principles for the use of laboratory animals under the personal license #2013-15-2934-00784. […] Mice were weighed daily during the study and body composition was measured by non-invasive EchoMRI scanning using EchoMRI-900 (EchoMRI, Houston, TX). […]

Assay [3] relates to liver genes involved in inflammation, fibrogenesis, extracellular matrix formation and NASH progression. Description: RNASeq of terminal liver samples (mRNA expression) in mouse model of NASH. The method, then:
as §1, §2, §3
Animals and Diet: The Danish Animal Experiments Inspectorate approved all experiments which were conducted using internationally accepted principles for the use of laboratory animals under the personal license #2013-15-2934-00784. B6.V-Lepob/JRj (ob/ob) mice (6 weeks old) were from Janvier Labs (Le Genest Saint Isle, France) and housed in a controlled environment (12h light/dark cycle, lights on at 3 AM, 21+2° C., humidity 50+10%). Each animal was identified by an implantable subcutaneous microchip (PetID Microchip, E-vet, Haderslev, Denmark). Mice had ad libitum access to tap water and the Gubra Amylin NASH diet [GAN diet; 40 kcal-% fat (of these 0% trans-fat and 46% saturated fatty acids by weight), 22% fructose, 10% sucrose, 2% cholesterol; D09100310, Research Diets]. Mice were maintained on the GAN diet for 33 weeks prior to study initiation to induce NASH and remained on the GAN diet during the 12 weeks of drug administration. Mice were weighed daily during the study and body composition was measured by non-invasive EchoMRI scanning using EchoMRI-900 (EchoMRI, Houston, TX).

[4] abbreviates: 2.5% gel, topical to 10% of skin, p<0.001.

`O=C(COc1ccc(CO)cc1)N1CC[C@H](Oc2ccccc2C(F)(F)F)C1` [Compound 25, (S)-2-(4-(hydroxymethyl)phenoxy)-1-(3-(2-(trifluoromethyl)phenoxy)pyrrolidin-1-yl)ethan-1-one]: in assay [1] (setting [4]), the “body adiposity (percent body weight)” value is recorded as “significantly reduced” and the “body weight (percent baseline body weight)” value is given as “significantly reduced”. Further, the “total body weight or body fat” value in assay [1] (lower doses at which fibrosis changes were observed, topical) is “no or minimal effect”. Also, in assay [2], the liver triglyceride content result is listed as “significantly reduced”. Also, the “liver Galectin-3 mRNA” value in assay [3] (2.5% gel) was “Reduced”. Besides, the “liver mRNA expression of genes associated with NASH progression and poor prognosis” value in assay [3] (2.5% gel, Aldh8a1, Aldh7a1, Annexin A2, CD36, CNBP, CIDEC, Cyclin D1, Fasn, Hsbp1, KIF6, Nfe212, Perilipin 2) is reported as “significant regulation”. In addition, the “liver mRNA expression of genes involved in hepatic inflammation” value in assay [3] (2.5% gel, Chemokine Ligand 2, Chemokine Ligand 5, Epithelial Cell Adhesion Protein, Cluster of Differentiation 68, Integrin X) was “significantly downregulated”. In addition, the “liver mRNA expression of genes involved in NASH fibrogenesis and extracellular matrix formation” value in assay [3] (2.5% gel, Monocyte Chemoattractant Protein-1, Osteonectin, α-SMA, Collagen 1a1, Collagen 3a1, Collagen 4a1) is reported as “significantly downregulated”. For the same compound, in assay [3] (conclusion, dose not specified), the “candidate genes whose expression may be predictive for poor outcomes like liver cirrhosis and cancer” value was “favorably regulated”.
